Tests used:
[1] = test system: HCT 116 human colon cancer cells; test: MTT cell viability assay, HCT 116; assay type: cell-based; settings: MTT
Procedure: (§2) HIEC6 human healthy intestinal cells and HCT 116 and HT-29 human colon cancer cells were supplied by ATCC. Colon cancer cells were cultured in Dulbecco’s modified Eagle’s medium (DMEM) for HCT 116 and HT-29 supplemented with fetal bovine serum (10%). HIEC6 cells were cultured in Opti-MEM supplemented with fetal bovine serum (4%), HEPES (20 mM), glutamine (10 mM), and epidermal growth factor (10 ng/mL). Cells were maintained at 37 °C in a humidified atmosphere containing 5% CO2. Cells were seeded at 30% confluence in DMEM for HCT 116 and in Opti-MEM for HIEC6; after cell adhesion, HIEC6 cells were cultured in DMEM for 24h before being treated. All cells were treated with the indicated components at concentrations of 0.25–50 μM and incubated for 1–5 days as specified.
(§3) The MTT assay relies on a colorimetric reaction based on the capacity of living cells to reduce MTT to formazan and change the color to purple, which is easily measured by colorimetry. This assay estimates the cellular viability after the indicated treatments. Cells were treated with MTT (1:10 in culture medium) and incubated at 37 °C for 3 h for HCT 116 and HT-29 or 6 h for HIEC6. After removal of the medium, the formazan was resuspended in DMSO, transferred to p96 plates, and analyzed by a SpectraFLUOR (Tecan) at 542 nm. In all cases, viability was measured in duplicates of each point in three independent experiments.

[2] = test system: HIEC6 human healthy intestinal cells; test: MTT cell viability assay, HIEC6; assay type: cell-based; settings: MTT; for Reduction in viability of healthy cells (HIEC6): 5 μM
Procedure: as §2, §3

HCT 116 cells = test: Trypan blue exclusion test; assay type: cell-based, human; settings: HCT 116, 0.5 μM, 2 days
Procedure: HCT 116 cells were harvested by trypsinization followed by centrifugation at 500g for 5 min. The cell pellet was resuspended in 1 mL of PBS. Equal volumes of trypan blue (Bio-Rad cat. no. 1450021) 0.4% and cell suspension were mixed and incubated for 1–3 min at room temperature, and cell counting was carried out using a TC20 Automated Cell Counter (Bio-Rad cat. no. 1450102). The percentage of viable cells was calculated by dividing the number of viable cells per milliliter by the number total of cells per milliliter) × 100. Representative images were acquired using a Zeis light microscope with a 20× objective.

[3] = 195Pt NMR reduction kinetics with ascorbic acid; assay type: physicochemical; settings: AsA 4:1 excess, DMSO/D2O (4:1), 37 °C, 2, 6, 24 h
Procedure: (§1) AsA presents an intracellular concentration of 1 mM, whereas the GSH concentration is 2 mM.[38] This reactivity was monitored by ^195Pt NMR at different times. Thus, by analyzing the different regions where the signals of Pt(II)/Pt(IV) species appear, it is possible to identify and assign the different compounds formed during the reaction. In most cases, the regions where the Pt(II) and Pt(IV) signals appear are separated by more than 3000 ppm.[33]
We first studied the reduction of the complexes against AsA, monitoring the reaction in both the Pt(IV) and Pt(II) region at 2, 6, and 24 h. In both cases, we used a mixture of DMSO/D2O (4:1) to reach the solubilization of the complexes and the AsA. In the Pt(IV)-biSi-1 reduction experiment, during the first hour, only the signal at 1210 ppm appeared in the Pt(IV) region (Figure S13A), which corresponds to the original complex, and no signal was detected in the Pt(II) region.
Each solution was then slowly added to 100 μL of a solution of the corresponding reducing agent (AsA or GSH in an excess of 4:1 against each complex) in D2O at 37 °C. After that, 100 μL of DMSO-d6 was added carefully to each mixture, reaching a final concentration of […] (DMSO-d6/D2O). All of these mixtures were performed using a thermoshaker. Each sample was monitored by ^195Pt NMR at 2, 6, and 24 h.

[4] = 195Pt NMR reduction kinetics with glutathione; assay type: physicochemical; settings: GSH 4:1 excess, DMSO/D2O (4:1), 37 °C, 2, 6, 24 h
Procedure: as §1
The reactivity of both complexes toward the reducing agent GSH was also studied using the DMSO/D2O (4:1) mixture. […] In the Pt(II) region, two signals appeared after 24 h at −2728 and −3405 ppm (Figure 2G). The first value is consistent with the cis-PtN2SX fraction,[41],[42] meaning that this species, once reduced to its Pt(II) homologue, coordinates with GSH by displacing a chloride ligand. The second signal corresponds to another Pt(II) moiety with more than one ligand containing sulfur atoms. […]
Each solution was then slowly added to 100 μL of a solution of the corresponding reducing agent (AsA or GSH in an excess of 4:1 against each complex) in D2O at 37 °C. […] Each sample was monitored by ^195Pt NMR at 2, 6, and 24 h.

[5] = Stability in DMEM by 195Pt NMR; assay type: physicochemical; settings: DMSO-d6/DMEM 1:4, 37 °C, 0, 24, 48, 120 h
Excerpt: We then decided to evaluate the stability of the two Pt(IV) complexes in the medium (DMEM) used to carry out the in vitro experiments, monitoring their kinetics by ^195Pt NMR at different times to evaluate the possible species formed over time. DMEM is supplemented with proteins and other molecules essential for cell growth (Experimental Section). Thus, similar to the reduction assays, we analyzed the Pt(II)/Pt(IV) region where the expected species appear. […] Both Pt(IV)/Pt(II) signals disappeared after 48 h, most likely again because of the binding of the complex to the proteins.
To each solution was then slowly and carefully added 300 μL of DMEM to avoid the precipitation of the complex, reaching a final concentration of 1:4 (DMSO-d6/DMEM). All these mixtures were performed using a thermoshaker. Each sample was monitored by ^195Pt NMR at 0, 24, 48, and 120 h.

[6] = test system: p53 protein levels in HCT 116 cells; test: Western blot of p53 levels; assay type: cell-based, human; settings: HCT 116, 48 h, increasing concentrations
Procedure: Confocal imaging of the DNA damage response was followed by immunofluorescence of histone gH2Ax foci at double-strand DNA breaks (DSB) (Figure 4A). […] However, none of the Pt(IV) prodrugs were able to increase p53 levels even at concentrations higher than those needed to reduce cell viability.
Cells were washed with iced PBS before extract preparation and scraped in whole-cell protein lysis buffer (62.5 mM Tris-HCl pH 6.8, 2% sodium dodecyl sulfate (SDS), 0.01% bromophenol blue sodium salt, and 10% glycerol). Whole-cell protein lysates were incubated 15 min at 95 °C and directly used as whole cell extract or frozen at −80 °C. Proteins from lysed cells or immunoprecipitates were denatured and loaded on sodium dodecyl sulfate polyacrylamide gels and then transferred to polyvinylidene difluoride membranes (Bio-Rad). After blocking with 5% (w/v) milk, the membrane was incubated with the corresponding primary antibodies, anti-p53 sc-126 (Santa Cruz Biotechnology) or anti-tubulin (Sigma-Aldrich), and secondary antibodies (Bio-Rad). The specific bands were analyzed using the ChemiDoc Imaging Systems (Bio-Rad).

[7] = 2 days, experiment with intermediates, Figure 3A
[8] = 2 days, (final complexes, Figure 3B)

## N.N.[Cl-].[Cl-].[OH-].[OH-].[Pt+4] [oxoplatin, cis-Dichloro(diamine)-trans-dihydroxoplatinum(IV), reference compound]
[1]; [7]
  Cell viability, HCT 116 5uM 2 days: 82.9 ± 6.0%
[2]; [7]
  Cell viability, HIEC6 5uM 2 days: 65.3 ± 10.9%

## cis-Dichloro(diisopropylamine)-trans-dihydroxoplatinum(IV) [iproplatin, reference compound]
[1]; [7]
  Cell viability, HCT 116 5uM 2 days: 73.6 ± 5.4%
[2]; [7]
  Cell viability, HIEC6 5uM 2 days: 69.8 ± 6.3%

## CCO[Si](CCCNC(=O)[O][Pt]([NH2])([NH2])([Cl])([Cl])[O]C(=O)NCCC[Si](OCC)(OCC)OCC)(OCC)OCC [Pt(IV)-biSi-1, cis-Dichloro(diamine)-trans-[3-(triethoxysilyl)propylcarbamate]platinum(IV)]
[1]; 0.5 uM, 2 days
  Cell viability, HCT 116 0.5uM 2 days: 70.1 ± 6.0%
[1]; 0.5 μM, 2 days
  Reduction of viability (cytotoxicity) of HCT 116 tumor cells: very similar to those of cisplatin
[1]; 0.5 uM, 5 days
  Cell viability, HCT 116 0.5uM 5 days: 87.0 ± 5.0%
[1]; 5 μM, 2 days
  Reduction in viability of cancer cells (HCT 116): 20%
[1]; [8]
  Cell viability, HCT 116 5uM 2 days: 78.8 ± 3.1%
[1]; 48 h, supplementary CSV, read-out: IC50 (uM) HCT 116
  IC50: 8.9 ± 0.6 µM
[2]; 0.5 uM, 2 days
  Cell viability, HIEC6 0.5uM 2 days: 99.5 ± 1.8%
[2]; 0.5 uM, 5 days
  Cell viability, HIEC6 0.5uM 5 days: 105.3 ± 3.6%
[2]; 2 days
  Reduction in viability of healthy cells (HIEC6): 60%
[2]; [8]
  Cell viability, HIEC6 5uM 2 days: 40.0 ± 1.8%
[2]; 48 h, supplementary CSV, read-out: IC50 (uM) HIEC6
  IC50: 5.1 ± 0.7 µM
HCT 116 cells
  Reduction of viability by trypan blue staining: 20%
[3]
  Reduction of the Pt(IV) complex by AsA (Pt(IV) signal in 195Pt NMR): after 24 h, this signal underwent a marked decrease in intensity
[4]
  Reduction of the Pt(IV) complex by GSH (Pt(IV) signal in 195Pt NMR): at 24 h, there is still a fraction of free complex without undergoing reduction
[5]
  Stability in DMEM (Pt(IV) signal in 195Pt NMR): decreases with time up to 48 h, where a small fraction of the initial complex remains intact

## N.N.[Cl][Pt][Cl] [cisplatin, Cisplatin, reference compound]
[1]; 5 μM, 5 days chronic treatment
  Cells survived, HCT 116: more than 50%
[2]; 2 days
  Reduction in viability of healthy cells (HIEC6): 60%
HCT 116 cells
  Reduction of viability by trypan blue staining: 20%
[6]
  p53 levels: increased p53 levels (at all concentrations)
